Data as given in patent publication US10221197B2, “Phosphatidylinositol 3-kinase inhibitors” (Gilead Sciences, Inc., priority 2014, dated 2019).
Read-outs that look alike come from different tables or passages of the source.

How the values were obtained:
Assay type in all cases: biochemical
PI3Kβ = PI3Kβ (Homo sapiens (Human), UniProt P42338); assay: TR-FRET enzymatic assay of PI3K isoforms (PI3Kβ); conditions: for IC50: TR-FRET, 2×Km ATP, 2 μM PIP2, incubated for 30 minutes at 25° C., read-out: β IC50; for PI3Kγ/PI3Kβ ratio: ratio of IC50 values, selectivity for PI3Kβ over PI3Kγ
PI3Kβ, sequence (P42338 whole entry, canonical isoform): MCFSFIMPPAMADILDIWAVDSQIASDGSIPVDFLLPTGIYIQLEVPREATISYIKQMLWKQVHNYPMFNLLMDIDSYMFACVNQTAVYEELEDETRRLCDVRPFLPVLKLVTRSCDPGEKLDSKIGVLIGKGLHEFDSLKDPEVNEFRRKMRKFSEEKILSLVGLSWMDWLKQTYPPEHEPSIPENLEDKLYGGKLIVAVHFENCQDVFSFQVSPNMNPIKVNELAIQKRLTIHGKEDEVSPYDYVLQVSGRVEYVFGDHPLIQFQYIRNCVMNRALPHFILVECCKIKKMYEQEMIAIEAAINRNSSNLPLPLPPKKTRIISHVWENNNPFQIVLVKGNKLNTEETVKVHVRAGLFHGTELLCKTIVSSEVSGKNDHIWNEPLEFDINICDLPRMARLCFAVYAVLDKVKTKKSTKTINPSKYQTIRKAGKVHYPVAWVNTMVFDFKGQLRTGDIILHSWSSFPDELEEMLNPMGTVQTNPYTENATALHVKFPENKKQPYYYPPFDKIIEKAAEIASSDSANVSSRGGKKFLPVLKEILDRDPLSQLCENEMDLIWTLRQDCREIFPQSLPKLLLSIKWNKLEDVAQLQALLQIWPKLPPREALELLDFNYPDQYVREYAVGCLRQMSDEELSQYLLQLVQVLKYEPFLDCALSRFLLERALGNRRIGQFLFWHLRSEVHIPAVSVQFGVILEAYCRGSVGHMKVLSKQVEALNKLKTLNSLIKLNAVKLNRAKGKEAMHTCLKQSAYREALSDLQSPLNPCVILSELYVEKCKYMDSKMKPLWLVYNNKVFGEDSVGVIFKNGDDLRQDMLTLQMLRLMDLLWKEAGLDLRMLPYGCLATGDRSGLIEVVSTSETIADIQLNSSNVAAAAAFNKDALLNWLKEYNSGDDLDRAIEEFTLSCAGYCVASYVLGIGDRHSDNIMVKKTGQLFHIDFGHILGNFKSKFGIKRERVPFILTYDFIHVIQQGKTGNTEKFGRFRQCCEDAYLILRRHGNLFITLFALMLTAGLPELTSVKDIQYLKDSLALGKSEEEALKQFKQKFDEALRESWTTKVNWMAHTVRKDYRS
PI3Kβ, sequence (P27986 whole entry partner, canonical isoform): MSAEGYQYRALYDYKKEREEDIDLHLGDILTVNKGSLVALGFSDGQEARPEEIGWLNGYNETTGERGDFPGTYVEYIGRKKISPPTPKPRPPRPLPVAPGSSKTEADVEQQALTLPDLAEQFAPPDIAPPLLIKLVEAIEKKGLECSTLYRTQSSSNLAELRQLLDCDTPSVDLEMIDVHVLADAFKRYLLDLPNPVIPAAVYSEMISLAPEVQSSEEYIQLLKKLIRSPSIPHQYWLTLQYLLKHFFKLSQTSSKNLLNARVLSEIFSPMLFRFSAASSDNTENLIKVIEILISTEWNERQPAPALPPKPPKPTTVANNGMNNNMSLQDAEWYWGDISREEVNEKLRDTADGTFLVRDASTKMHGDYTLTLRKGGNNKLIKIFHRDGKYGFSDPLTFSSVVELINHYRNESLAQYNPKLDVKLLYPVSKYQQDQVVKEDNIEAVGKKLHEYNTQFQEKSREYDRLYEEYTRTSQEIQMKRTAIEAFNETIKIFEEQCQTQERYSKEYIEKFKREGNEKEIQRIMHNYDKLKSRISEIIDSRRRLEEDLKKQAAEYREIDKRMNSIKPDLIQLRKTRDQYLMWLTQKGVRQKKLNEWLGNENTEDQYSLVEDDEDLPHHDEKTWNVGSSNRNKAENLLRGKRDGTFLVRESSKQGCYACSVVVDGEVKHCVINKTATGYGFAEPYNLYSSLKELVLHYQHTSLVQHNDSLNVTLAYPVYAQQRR
Protocol: (§1) The compounds of formula (I) were characterized for their enzymatic activity against the PI3K isoforms. Certain compounds of the present application, including certain compounds of formula (II) and (III) were also characterized for their enzymatic activity against PI3K isoforms. The activities were measured using a time-resolved fluorescence resonance energy transfer (TR-FRET) assay.

PI3Kδ = PI3Kδ (Homo sapiens (Human), UniProt O00329); assay: TR-FRET enzymatic assay of PI3K isoforms (PI3Kδ); conditions: 2×Km ATP, 2 μM PIP2, incubated for 30 minutes at 25° C., read-out: δ IC50
PI3Kδ, sequence (O00329 whole entry, canonical isoform): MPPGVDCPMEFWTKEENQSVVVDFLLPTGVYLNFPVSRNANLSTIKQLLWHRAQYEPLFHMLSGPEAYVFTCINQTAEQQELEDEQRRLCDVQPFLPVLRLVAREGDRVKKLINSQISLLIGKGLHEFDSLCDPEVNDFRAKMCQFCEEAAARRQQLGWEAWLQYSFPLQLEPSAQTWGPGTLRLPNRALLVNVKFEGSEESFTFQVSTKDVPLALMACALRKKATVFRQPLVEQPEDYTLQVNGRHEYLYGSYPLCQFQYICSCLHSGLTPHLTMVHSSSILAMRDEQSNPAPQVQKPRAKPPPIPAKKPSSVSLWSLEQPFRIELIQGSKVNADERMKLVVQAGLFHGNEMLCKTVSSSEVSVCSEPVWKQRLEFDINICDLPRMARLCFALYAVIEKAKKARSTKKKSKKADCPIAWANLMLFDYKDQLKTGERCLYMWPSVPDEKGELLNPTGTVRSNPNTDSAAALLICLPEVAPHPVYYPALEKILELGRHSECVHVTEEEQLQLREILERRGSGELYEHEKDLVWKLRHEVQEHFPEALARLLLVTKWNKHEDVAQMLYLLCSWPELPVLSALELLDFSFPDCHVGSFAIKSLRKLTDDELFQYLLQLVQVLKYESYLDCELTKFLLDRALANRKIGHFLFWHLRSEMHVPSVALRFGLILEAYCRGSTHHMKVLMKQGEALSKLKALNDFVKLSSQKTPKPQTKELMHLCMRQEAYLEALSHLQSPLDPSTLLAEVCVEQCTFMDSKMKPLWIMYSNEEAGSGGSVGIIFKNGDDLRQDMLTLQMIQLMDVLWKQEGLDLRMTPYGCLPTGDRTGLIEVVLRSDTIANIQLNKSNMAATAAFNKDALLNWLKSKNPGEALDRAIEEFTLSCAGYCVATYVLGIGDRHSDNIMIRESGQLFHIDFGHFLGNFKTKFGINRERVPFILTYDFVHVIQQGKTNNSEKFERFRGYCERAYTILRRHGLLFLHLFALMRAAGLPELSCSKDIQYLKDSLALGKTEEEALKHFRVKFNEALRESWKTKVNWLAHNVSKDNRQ
PI3Kδ, sequence (P27986 whole entry partner, canonical isoform): as the sequence (P27986 whole entry partner, canonical isoform) above
Protocol: as §1

PI3Kγ = PI3Kγ (Homo sapiens (Human), UniProt P48736); assay: TR-FRET enzymatic assay of PI3K isoforms (PI3Kγ); conditions: read-out: γ IC50
PI3Kγ, sequence (P48736 whole entry, canonical isoform): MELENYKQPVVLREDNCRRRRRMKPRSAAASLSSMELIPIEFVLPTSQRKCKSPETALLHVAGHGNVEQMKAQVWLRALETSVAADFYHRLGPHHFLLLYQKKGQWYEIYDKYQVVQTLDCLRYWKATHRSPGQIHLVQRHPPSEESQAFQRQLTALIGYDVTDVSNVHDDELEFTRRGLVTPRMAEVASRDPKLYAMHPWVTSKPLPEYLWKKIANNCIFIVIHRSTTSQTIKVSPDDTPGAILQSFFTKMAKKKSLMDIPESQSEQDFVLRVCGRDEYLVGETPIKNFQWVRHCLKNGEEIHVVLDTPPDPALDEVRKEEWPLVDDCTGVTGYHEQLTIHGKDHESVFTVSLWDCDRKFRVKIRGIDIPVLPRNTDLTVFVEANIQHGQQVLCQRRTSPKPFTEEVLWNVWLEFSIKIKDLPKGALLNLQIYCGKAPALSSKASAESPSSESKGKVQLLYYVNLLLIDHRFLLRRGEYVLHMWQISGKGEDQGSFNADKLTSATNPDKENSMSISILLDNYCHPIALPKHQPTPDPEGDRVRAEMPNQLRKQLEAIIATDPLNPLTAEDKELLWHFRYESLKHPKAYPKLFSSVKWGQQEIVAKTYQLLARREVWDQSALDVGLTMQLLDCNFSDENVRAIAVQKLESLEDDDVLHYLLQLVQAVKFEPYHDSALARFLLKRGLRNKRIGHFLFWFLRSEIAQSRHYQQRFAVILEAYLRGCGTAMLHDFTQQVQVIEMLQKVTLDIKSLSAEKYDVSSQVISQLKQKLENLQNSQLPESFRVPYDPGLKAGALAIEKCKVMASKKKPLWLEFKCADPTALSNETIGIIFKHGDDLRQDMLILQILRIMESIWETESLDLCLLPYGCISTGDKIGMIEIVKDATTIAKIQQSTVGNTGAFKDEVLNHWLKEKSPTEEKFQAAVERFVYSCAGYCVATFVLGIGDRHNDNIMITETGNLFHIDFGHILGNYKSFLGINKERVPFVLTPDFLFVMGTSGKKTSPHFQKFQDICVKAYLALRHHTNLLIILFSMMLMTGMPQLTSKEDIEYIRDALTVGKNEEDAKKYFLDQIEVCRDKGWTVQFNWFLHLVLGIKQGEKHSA
PI3Kγ, sequence (Q8WYR1 whole entry partner, canonical isoform): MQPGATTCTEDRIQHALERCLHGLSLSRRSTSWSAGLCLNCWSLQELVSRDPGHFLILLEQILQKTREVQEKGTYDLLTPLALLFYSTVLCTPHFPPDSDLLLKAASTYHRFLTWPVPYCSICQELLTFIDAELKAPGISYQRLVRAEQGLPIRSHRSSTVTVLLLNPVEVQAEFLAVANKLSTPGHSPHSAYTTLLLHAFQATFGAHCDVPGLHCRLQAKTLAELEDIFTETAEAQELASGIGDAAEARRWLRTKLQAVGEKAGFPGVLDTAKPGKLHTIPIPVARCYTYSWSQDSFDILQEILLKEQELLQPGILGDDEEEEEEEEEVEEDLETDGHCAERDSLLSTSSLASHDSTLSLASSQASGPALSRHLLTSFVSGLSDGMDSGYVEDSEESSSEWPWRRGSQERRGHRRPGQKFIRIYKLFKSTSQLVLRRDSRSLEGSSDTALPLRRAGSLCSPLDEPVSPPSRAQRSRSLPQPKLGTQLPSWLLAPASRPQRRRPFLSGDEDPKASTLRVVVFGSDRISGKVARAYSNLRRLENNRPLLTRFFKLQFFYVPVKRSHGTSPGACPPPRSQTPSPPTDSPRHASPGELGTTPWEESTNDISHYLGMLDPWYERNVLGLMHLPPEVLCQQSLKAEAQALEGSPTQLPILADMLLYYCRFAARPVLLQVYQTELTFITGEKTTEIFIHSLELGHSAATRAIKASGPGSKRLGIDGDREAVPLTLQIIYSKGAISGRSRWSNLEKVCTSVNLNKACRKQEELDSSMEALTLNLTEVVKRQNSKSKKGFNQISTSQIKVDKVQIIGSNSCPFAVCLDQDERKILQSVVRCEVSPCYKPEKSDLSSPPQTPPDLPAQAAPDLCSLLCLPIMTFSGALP
Protocol: as §1

[1] = TR-FRET, 2×Km ATP, 2 μM PIP2, PI3Kγ at 2 nM, incubated for 30 minutes at 25° C.

Compound	IC50 (PI3Kβ) [nM]	IC50 (PI3Kδ) [nM]	IC50 (PI3Kγ; [1]) [nM]	also measured
C[C@H](Nc1ncnc(N)c1C#N)c1nc2cccc(Cl)c2c(=O)n1-c1cccc(NC(=O)NC(C)(C)C(=O)O)c1 [Compound 139, (S)-2-(3-(3-(2-(1-((6-amino-5-cyanopyrimidin-4-yl)amino)ethyl)-5-chloro-4-oxoquinazolin-3(4H)-yl)phenyl)ureido)-2-methylpropanoic acid]	30	13	8100	–
CCNC(=O)Nc1cccc(-n2c([C@H](C)Nc3ncnn4ccnc34)nc3cccc(Cl)c3c2=O)c1 [Compound 71, (S)-1-(3-(5-chloro-2-(1-(imidazo[2,1-f][1,2,4]triazin-4-ylamino)ethyl)-4-oxoquinazolin-3(4H)-yl)phenyl)-3-ethylurea]	29	–	2000	–
CCNC(=O)Nc1cccc(-n2c([C@@H](Nc3ncnc(N)c3C#N)[C@@H](C)CC)nc3cccc(Cl)c3c2=O)c1 [Compound 42, 1-(3-(2-((1S,2S)-1-((6-amino-5-cyanopyrimidin-4-yl)amino)-2-methylbutyl)-5-chloro-4-oxoquinazolin-3(4H)-yl)phenyl)-3-ethylurea]	170	–	> 10000	–
CCNC(=O)Nc1cccc(-n2c([C@H](C)Nc3ncnc(N)c3C#N)nc3cccc(C(F)(F)F)c3c2=O)c1 [Compound 51, (S)-1-(3-(2-(1-((6-amino-5-cyanopyrimidin-4-yl)amino)ethyl)-4-oxo-5-(trifluoromethyl)quinazolin-3(4H)-yl)phenyl)-3-ethylurea]	67	–	–	–
N#Cc1c(N)ncnc1N[C@@H](COCc1ccccc1)c1nc2cccc(Cl)c2c(=O)n1-c1cccc(NC(=O)NCCCO)c1 [Compound 130, (R)-1-(3-(2-(1-((6-amino-5-cyanopyrimidin-4-yl)amino)-2-(benzyloxy)ethyl)-5-chloro-4-oxoquinazolin-3(4H)-yl)phenyl)-3-(3-hydroxypropyl)urea]	24	–	–	IC50 (PI3Kγ): > 10000 nM
CCNC(=O)Nc1ccc(Cl)c(-n2c([C@H](C)Nc3ncnc(N)c3C#N)nc3cccc(Cl)c3c2=O)c1 (atropisomer, axis not shown) [Compound 58, (S)-1-(3-(2-(1-((6-amino-5-cyanopyrimidin-4-yl)amino)ethyl)-5-chloro-4-oxoquinazolin-3(4H)-yl)-4-chlorophenyl)-3-ethylurea]	1300	24	–	–
CCNC(=O)Nc1cccc(-n2c([C@@H](C)Nc3ncnc(N)c3C#N)nc3cccc(Cl)c3c2=O)c1 [Compound 44, (R)-1-(3-(2-(1-((6-amino-5-cyanopyrimidin-4-yl)amino)ethyl)-5-chloro-4-oxoquinazolin-3(4H)-yl)phenyl)-3-ethylurea]	320	–	> 10000	–
C[C@H](Nc1ncnc(N)c1C#N)c1nc2cccc(Cl)c2c(=O)n1-c1cccc(NC(=O)Nc2cc(C(C)(C)C)on2)c1 [Compound 74, (S)-1-(3-(2-(1-((6-amino-5-cyanopyrimidin-4-yl)amino)ethyl)-5 chloro-4-oxoquinazolin-3(4H)-yl)phenyl)-3-(5-(tert-butyl)isoxazol-3-yl)urea]	11	3	–	–
Cc1nc(N)nc(N[C@H](c2nc3c(Cl)ccc(Cl)c3c(=O)n2-c2cccc(C(N)=O)c2)C2CC2)c1C#N [Compound 13, (S)-3-(2-(((2-amino-5-cyano-6-methylpyrimidin-4-yl)amino)(cyclopropyl)methyl)-5,8-dichloro-4-oxoquinazolin-3(4H)-yl)benzamide]	7	–	510	–
N#Cc1c(N)nc(N)nc1N[C@H](c1nc2c(Cl)cc(F)cc2c(=O)n1-c1cccc(C(N)=O)c1)C1CC1 [Compound 27, (S)-3-(8-chloro-2-(cyclopropyl((2,6-diamino-5-cyanopyrimidin-4-yl)amino)methyl)-6-fluoro-4-oxoquinazolin-3(4H)-yl)benzamide]	5	2	–	–
CCNC(=O)Nc1cccc(-n2c([C@H](COCc3ccccc3)Nc3ncnc4[nH]cnc34)nc3cccc(Cl)c3c2=O)c1 [Compound 133, (R)-1-(3-(2-(1-((9H-purin-6-yl)amino)-2-(benzyloxy)ethyl)-5-chloro-4-oxoquinazolin-3(4H)-yl)phenyl)-3-ethylurea]	50	–	10000	–
CCC[C@H](Nc1nc(N)nc(N)c1C#N)c1nc2c(Cl)ccc(Cl)c2c(=O)n1-c1cccc(C(N)=O)c1 [Compound 20, (S)-3-(5,8-dichloro-2-(1-((2,6-diamino-5-cyanopyrimidin-4-yl)amino)butyl)-4-oxoquinazolin-3(4H)-yl)benzamide]	11	–	1400	–
C[C@H](Nc1nc(N)nc(N)c1C#N)c1nc2cccc(Cl)c2c(=O)n1-c1ccccc1 [Compound X, (S)-2,4-diamino-6-((1-(5-chloro-4-oxo-3-phenyl-3,4-dihydroquinazolin-2-yl)ethyl)amino)pyrimidine-5-carbonitrile, reference compound]	–	–	–	PI3Kγ/PI3Kβ ratio (PI3Kβ): 0.6; PI3Kγ/PI3Kβ ratio (PI3Kβ; listed as (S)-2,4-diamino-6-(1-(5-chloro-4-oxo-3-phenyl-3,4-dihydroquinazolin-2-yl)ethyl)): less than 1
CCNC(=O)Nc1cccc(-n2c([C@H](C)Nc3ncnc4[nH]cnc34)nc3c(F)ccc(Cl)c3c2=O)c1 [Compound 63, (S)-1-(3-(2-(1-((9H-purin-6-yl)amino)ethyl)-5-chloro-8-fluoro-4-oxoquinazolin-3(4H)-yl)phenyl)-3-ethylurea]	29	29	–	–
C[C@H](Nc1ncnc(N)c1C#N)c1nc2cccc(Cl)c2c(=O)n1-c1cccc(NC(=O)Nc2ccc(F)cc2F)c1 [Compound 105, (S)-1-(3-(2-(1-((6-amino-5-cyanopyrimidin-4-yl)amino)ethyl)-5-chloro-4-oxoquinazolin-3(4H)-yl)phenyl)-3-(2,4-difluorophenyl)urea]	3	–	800	–
COCCNC(=O)Nc1cccc(-n2c(C(C)Oc3ncnc4scnc34)nc3cccc(Cl)c3c2=O)c1 (stereo not shown) [Compound 149, 1-(3-(5-chloro-4-oxo-2-(1-(thiazolo[5,4-d]pyrimidin-7-yloxy)ethyl)quinazolin-3(4H)-yl)phenyl)-3-(2-methoxyethyl)urea]	60	–	3500	–
C[C@H](Nc1ncnc(N)c1C#N)c1nc2cccc(Cl)c2c(=O)n1-c1cccc(NC(=O)Nc2c(Cl)cccc2Cl)c1 [Compound 103, (S)-1-(3-(2-(1-((6-amino-5-cyanopyrimidin-4-yl)amino)ethyl)-5-chloro-4-oxoquinazolin-3(4H)-yl)phenyl)-3-(2,6-dichlorophenyl)urea]	2	7	–	–
C[C@H](Nc1ncnc2[nH]cnc12)c1nc2cccc(Cl)c2c(=O)n1-c1cccc(NC(=O)Nc2ccccc2S(C)(=O)=O)c1 [Compound 145, (S)-1-(3-(2-(1-((9H-purin-6-yl)amino)ethyl)-5-chloro-4-oxoquinazolin-3(4H)-yl)phenyl)-3-(2-(methylsulfonyl)phenyl)urea]	30	8	–	–
CCNC(=O)Nc1cccc(-n2c([C@H](C)Nc3ncnc(N)c3C#N)nc3cccc(Cl)c3c2=O)c1 [Compound 90, (S)-1-(3-(2-(1-((6-amino-5-cyanopyrimidin-4-yl)amino)ethyl)-5-chloro-4-oxoquinazolin-3(4H)-yl)phenyl)-3-ethylurea]	5	–	3400	–
C[C@H](Nc1nc(N)nc(N)c1C#N)c1nc2c(Cl)cc(F)cc2c(=O)n1-c1cccc(C(N)=O)c1 [Compound 29]	8	–	440	–
